Results from patent US20230391729A1, “SUCCINATE SALTS OF N-(3-(4-(3-(DIISOBUTYLAMINO)PROPYL)PIPERAZIN-1-YL)PROPYL)-1H-BENZO[D]IMIDAZOL-2-AMINE, PREPARATION THEREOF AND USE OF THE SAME” (ALZPROTECT, priority 2020, published 2023).

What was measured:
α-syn aggregation = assay: α-synuclein aggregation in TH(+) neurons after MPP+ injury; assay type: cell-based, rat; settings: MPP+ 4 μM 48 h
Method: Rat dopaminergic neurons were cultured as described by Visanji et al. in FASEB J. 2008, 22(7): 2488-2497 and Callizot et al., in Plos One 2019: https://doi.org/10.1371/journal.pone.0215277. Briefly, pregnant female rat (Wistar) of 15 days of gestation were killed using a deep anesthesia with CO2 chamber and a cervical dislocation. The midbrains obtained from 15-day-old rat embryos (Janvier, France) were dissected under a microscope. The embryonic midbrains were removed and placed in ice-cold medium of Leibovitz (L15) containing 2% of Penicillin-Streptomycin (PS) and 1% of BSA. The ventral portion of the mesencephalic flexure, a region of the developing brain rich in dopaminergic neurons, were used for the cell preparations. The midbrains were dissociated by trypsinization for 20 min at 37° C. (solution at a final concentration of 0.05% trypsin and 0.02% EDTA). The reaction was stopped by the addition of DMEM containing DNAase I grade II (0.5 mg/mL) and 10% of FCS. […] Viable cells were counted in a Neubauer cytometer using the trypan blue exclusion test. […]
The following read-outs were investigated: • neuron survival: total number of TH neurons (TH staining), • neurite network: total length of neurite network of TH positive neurons (in μm) • α-syn aggregation (area of overlapping between TH and α-syn staining in μm^2) […]

[1] = 7-day stability tests of the salt (XRPD, HPLC purity); assay type: physicochemical; settings: for Purity (%) by HPLC after 7-day stability test: 7 days
Method: 7-day stability tests were carried out as follows: 15 mg of salt was weighed into x3 2 mL vials. The vials were then placed at 40° C./75% RH, 80° C. and under ambient light; after 1 week, the solids were analysed by XRPD and HPLC purity (method A).

[2] = Solubility assessment in unbuffered water and pH buffers; assay type: physicochemical; settings: solution in unbuffered water
Method: 100 μL of the appropriate buffer was added to form a slurry.

N-(3-(4-(3-(diisobutylamino)propyl)piperazin-1-yl)propyl)-1H-benzo[d]imidazol-2-amine sesqui-succinate salt [sesqui-succinate salt Form 1]
α-syn aggregation (α-syn aggregation; coincubation, 50 or 100 nM): significantly reduced
α-syn aggregation (α-syn aggregation; pre-incubation, all tested concentrations): significantly reduced
XRPD crystallinity or form after 7-day stability tests ([1]; 40° C./75% RH, 80° C. and ambient light): no change to crystallinity or form
Purity (%) by HPLC after 7-day stability test ([1]; 40° C./75% RH): 98.5%
Purity (%) by HPLC after 7-day stability test ([1]; 80° C.): 98.3%
Purity (%) by HPLC after 7-day stability test ([1]; Ambient Light): 98.4%
change in HPLC purity after 7-day stability test ([1]; each stability condition): no change in purity
pH measurement [2]: 5.28
